Experimental data: patent publication US20220241311A1, “METHODS AND MATERIALS FOR TREATING GLYCOSYLATION DISORDERS” (priority 2018, published 2022)

Tests used:
[1] = tested on: ICAM-1; assay: ICAM-1 Western blotting with galactose supplementation, healthy cells
[2] = tested on: skin fibroblasts of Patient 2; assay: N- and O-linked glycan analysis by MALDI-TOF mass spectroscopy; format: cell-based, human
Description: Fibroblasts from Patient 2 were used for N- and O-linked glycan analysis with and without D-gal feeding in vitro. Upon reaching 100% confluence, the cells were washed twice with PBS and harvested using a cell scraper. The cells were then pelleted and washed with PBS by centrifugation. Fibroblast pellets were lysed in 200 μL PBS, and 200 μg protein from the cell lysate was denatured and precipitated with ˜2 Å volume of 100% propanol. N-linked and O-linked glycans were released from precipitated protein, and free oligosaccharides were purified from the supernatant. N-linked glycans were released from the cell pellets using the PNGase F kit from New England Biolabs (Ipswich, Mass., USA). O-linked glycans were released using β-elimination with sodium borohydride. The released N-linked glycans from cells or deprotonated total cell lysate were purified and desalted by solid phase extraction using a SepPak C18 and carbograph column. O-linked glycans from cells were purified and desalted using an AG 50W-X8 resin cation exchange column. N-linked glycans, O-linked glycans and oligosaccharides were permethylated with sodium hydroxide and iodomethane in dimethyl sulfoxide (DMSO). After permethylation, glycans were extracted with water/chloroform (2:1, vol/vol) in four steps and dried. Samples were then dissolved in 50% methanol, spotted with 11% 2,5-dihydroxylbenzoic acid matrix (1:1 vol/vol), and measured in triplicates and compared to two healthy controls. Measurements were performed by MALDI-TOF using the positive mode on Ultraflex MALDI-TOF/TOF system (BrunkerDaltonics, Billerica, Mass., USA) as described elsewhere (see, e.g., Xia et al., 2013 Anal Biochem 442:178-185).

[3] = tested on: healthy controls (WT) fibroblasts; assay: Nucleotide sugar analysis (UPLC-PDA), healthy controls; format: cell-based, human
Description: Levels of nucleotides and sugar-nucleotides were determined. Fibroblast cell pellets (5×10^6 cells per sample) were lysed and extracted in 0.37 ml ice-cold 0.5 M perchloric acid with sonication on ice. Samples were neutralized with 86 μl ice-cold neutralization solution (2.5 M KOH in 1.5 M K2HPO4) after 5 minute sonication. To remove precipitated potassium perchlorate neutralized samples were centrifuged at 4° C. and 16,400×g for 10 minutes and filtered with 0.2 μm filters. Nucleotides and sugar-nucleotides were immediately analyzed and separated via ion-pair reverse phased chromatography using an Acquity HSS T3 column (150 mm×2.1 mm, 1.7 μm, Waters) connected to an Acquity H-class UPLC system. The column temperature was set to 40° C. and the column was equilibrated with solvent A (50 mM potassium phosphate buffer, 8 mM tetrabutylammonium hydrogensulfate, pH 6.5) at a flow rate of 0.45 ml min^−1. Autosampler temperature was maintained at 6° C. […] Nucleotides were detected by Acquity PDA detector (Waters, 260 nm) and quantified using ultrapure standards (Sigma). Data acquisition and processing was performed with the Empower3 software suite (Waters).
Nucleotide sugars were measured with serum starvation during 18 hours of culturing and without of serum starvation and applying normal media.

[4] = 4 days of 0.75 mM galactose following 18 hours of serum starvation

Question: What does the source list for O=C[C@H](O)[C@@H](O)[C@@H](O)[C@H](O)CO [D-gal, D-galactose]?
Answer: ICAM-1 expression [1]: no effect; N-glycan m/z 2070.06 Hexose5HexNAc4, Level [2, 4]: Normal; N-glycan m/z 2431 Sial1Hexose5HexNAc4, Level [2, 4]: Normal; N-glycan m/z 2605 + 2431 monosialo biantennary glycans, Level [2, 4]: High; N-glycan m/z 2605 Fuc1Sial1Hexose5HexNAc4, Level [2, 4]: High; O-glycan m/z 1256 core1, disialyl T, Level [2, 4]: Low; O-glycan m/z 1706 core2, disalyl, sial2hexose2hexNAc2, Level [2, 4]: High; O-glycan m/z 1706 core2, disalyl, sial2hexose2hexNAc2, % Total glycan ([2]; 4 days of 0.75 mM galactose following 18 hours of serum starvation, control range 14%): 35.12%; O-glycan m/z 1256 core1, disialyl T, % Total glycan ([2]; 4 days of 0.75 mM galactose following 18 hours of serum starvation, control range 55.12%): 11.22%; N-glycan m/z 2070.06 Hexose5HexNAc4, % Total glycan ([2]; 4 days of 0.75 mM galactose following 18 hours of serum starvation, control range <3.88%): 3.65%; N-glycan m/z 2431 Sial1Hexose5HexNAc4, % Total glycan ([2]; 4 days of 0.75 mM galactose following 18 hours of serum starvation, control range <3.90%): 2.23%; N-glycan m/z 2605 Fuc1Sial1Hexose5HexNAc4, % Total glycan ([2]; 4 days of 0.75 mM galactose following 18 hours of serum starvation, control range <4.46%): 6.15%; N-glycan m/z 2605 + 2431 monosialo biantennary glycans, % Total glycan ([2]; 4 days of 0.75 mM galactose following 18 hours of serum starvation, control range <8.36%): 8.38%; Monosialo core 1 at m/z 895 ([2]; both in control and PGM1-CDG cells): increased; Sialylation of N-glycans ([2]; in vitro galactose treatment of fibroblasts): improved sialylation; GlcNAcylation in N-linked or O-linked protein glycosylation profiles ([2]; patient 2 fibroblasts after serum starvation): No change; ADP ([3]; WT, 1 d 2 mM Galactose): 483.78 pmol/mio cells; AMP ([3]; WT, 1 d 2 mM Galactose): 10.14 pmol/mio cells; ATP ([3]; WT, 1 d 2 mM Galactose): 2604.27 pmol/mio cells; CTP ([3]; WT, 1 d 2 mM Galactose): 291.83 pmol/mio cells; GDP ([3]; WT, 1 d 2 mM Galactose): 194.35 pmol/mio cells; GDP-Man ([3]; WT, 1 d 2 mM Galactose): 72.63 pmol/mio cells; GTP ([3]; WT, 1 d 2 mM Galactose): 491.50 pmol/mio cells; UDP ([3]; WT, 1 d 2 mM Galactose): 159.94 pmol/mio cells; UDP-Gal ([3]; WT, 1 d 2 mM Galactose): 400.64 pmol/mio cells; UDP-Glc ([3]; WT, 1 d 2 mM Galactose): 345.82 pmol/mio cells; UTP ([3]; WT, 1 d 2 mM Galactose): 1267.16 pmol/mio cells; cAMP ([3]; WT, 1 d 2 mM Galactose): 77.78 pmol/mio cells; ADP ([3]; WT, 1 d + 0.75 mM Galactose): 506.33 pmol/mio cells; AMP ([3]; WT, 1 d + 0.75 mM Galactose): 16.00 pmol/mio cells; ATP ([3]; WT, 1 d + 0.75 mM Galactose): 2677.06 pmol/mio cells; CTP ([3]; WT, 1 d + 0.75 mM Galactose): 288.74 pmol/mio cells; GDP ([3]; WT, 1 d + 0.75 mM Galactose): 215.25 pmol/mio cells; GDP-Man ([3]; WT, 1 d + 0.75 mM Galactose): 97.79 pmol/mio cells; GTP ([3]; WT, 1 d + 0.75 mM Galactose): 519.85 pmol/mio cells; UDP ([3]; WT, 1 d + 0.75 mM Galactose): 164.12 pmol/mio cells; UDP-Gal ([3]; WT, 1 d + 0.75 mM Galactose): 298.39 pmol/mio cells; UDP-Glc ([3]; WT, 1 d + 0.75 mM Galactose): 313.93 pmol/mio cells; UTP ([3]; WT, 1 d + 0.75 mM Galactose): 1283.20 pmol/mio cells; cAMP ([3]; WT, 1 d + 0.75 mM Galactose): 70.82 pmol/mio cells; ADP ([3]; WT, 4 d 2 mM Galactose): 800.89 pmol/mio cells; AMP ([3]; WT, 4 d 2 mM Galactose): 43.70 pmol/mio cells; ATP ([3]; WT, 4 d 2 mM Galactose): 4045.74 pmol/mio cells; CTP ([3]; WT, 4 d 2 mM Galactose): 267.44 pmol/mio cells; GDP ([3]; WT, 4 d 2 mM Galactose): 375.01 pmol/mio cells; GDP-Man ([3]; WT, 4 d 2 mM Galactose): 179.79 pmol/mio cells; GTP ([3]; WT, 4 d 2 mM Galactose): 706.71 pmol/mio cells; UDP ([3]; WT, 4 d 2 mM Galactose): 209.11 pmol/mio cells; UDP-Gal ([3]; WT, 4 d 2 mM Galactose): 227.46 pmol/mio cells; UDP-Glc ([3]; WT, 4 d 2 mM Galactose): 272.66 pmol/mio cells; UDP-GlcNAc ([3]; WT, 4 d 2 mM Galactose): 5.74 pmol/mio cells; UTP ([3]; WT, 4 d 2 mM Galactose): 1538.99 pmol/mio cells; cAMP ([3]; WT, 4 d 2 mM Galactose): 71.87 pmol/mio cells; ADP ([3]; WT, 4 d + 0.75 mM Galactose): 670.35 pmol/mio cells; AMP ([3]; WT, 4 d + 0.75 mM Galactose): 28.04 pmol/mio cells; ATP ([3]; WT, 4 d + 0.75 mM Galactose): 4021.73 pmol/mio cells; CTP ([3]; WT, 4 d + 0.75 mM Galactose): 254.91 pmol/mio cells; GDP ([3]; WT, 4 d + 0.75 mM Galactose): 307.92 pmol/mio cells; GDP-Man ([3]; WT, 4 d + 0.75 mM Galactose): 191.57 pmol/mio cells; GTP ([3]; WT, 4 d + 0.75 mM Galactose): 691.97 pmol/mio cells; UDP ([3]; WT, 4 d + 0.75 mM Galactose): 156.18 pmol/mio cells; UDP-Gal ([3]; WT, 4 d + 0.75 mM Galactose): 219.26 pmol/mio cells; UDP-Glc ([3]; WT, 4 d + 0.75 mM Galactose): 268.34 pmol/mio cells; UTP ([3]; WT, 4 d + 0.75 mM Galactose): 1495.61 pmol/mio cells; cAMP ([3]; WT, 4 d + 0.75 mM Galactose): 67.63 pmol/mio cells; UDP-Glc and UDP-Gal levels ([3]; control cells, increase on first day of D-gal): normalized at 4 days; Nucleotide sugar ratio UDP-Glc/UDP-Gal, mean ([3]; controls, both with or without D-gal): 1.2
